This test concerns HAEC cells. Kind of test: Ciliogenesis of HAEC cells under blocking of the Notch signalling pathway. The class given is cell-based, human. The following applies: 10 μM.

As to `C[C@H](NC(=O)Cc1cc(F)cc(F)c1)C(=O)N[C@H](C(=O)OC(C)(C)C)c1ccccc1` [DCT], the “ciliogenesis during regeneration of the HAEC cells” value is “potentiates ciliogenesis significantly”.

The values above are taken from patent US9023821B2, “Use of MicroRNA for treating diseases associated with a dysfunction of the cilia in multiciliated epithelial cells” (Centre National de la Recherche Scientifique, priority 2009, dated 2015).
